Results: patent US8686048B2, “Immunomodulator and anti-inflammatory compounds” (Rhizen Pharmaceuticals SA, priority 2010, dated 2014)
pIC50: −log10 of the molar value.

Assays:
IL-17 = assay: Inhibition of IL-17 release from mouse splenocytes (PMA + ionomycin, ELISA); format: cell-based, Balb/c mice; conditions: Splenocyte, 10 μM, 3 h
Protocol: 2. Inhibition of IL-17 Release from Mouse Splenocytes:
Splenocytes isolated from Balb/c mice were re-suspended in RPMI medium at a concentration of 1×10^6 cells/ml and seeded in a 6 well plate. Cells were incubated with desired concentrations of the inhibitor for 15 min prior to induction with 10 ng/ml PMA+1 μM ionomycin. After a 3 h incubation, supernatant was collected and analyzed for IL-17 concentration using an ELISA kit. Data were analyzed using GraphPad Prism. IC50 values for each compound were determined based on the percent inhibition due to the test compound compared to the control.

h-DHODH = molecular target: T1, h-DHODH (Homo sapiens, UniProt Q02127); assay: Dihydro-orotate dehydrogenase inhibition assay (U937 membrane preparations, DCIP reduction); format: biochemical; conditions: U937 membrane preparation; for inhibition at 0.3 µM: compound tested at 0.3 uM (footnote *)
T1 construct: endogenous in cells; host or cells: U937 cells (membrane fraction, solubilised with 1% octyl glucoside)
Protocol: Dihydro-Orotate Dehydrogenase Inhibition Assay
Dihydro-orotate dehydrogenase (DHODH) catalyzes the […] of dihydro-orotate to orotate during de novo biosynthesis of pyrimidines Inhibition of DHODH activity in U937 membrane preparations was measured by the dihydro-orotate driven reduction of 2,6 dichloroindophenol (DCIP).
U937 cells were homogenized in 20 mM Tris/HCl (pH 7.2) containing 1 mM EDTA. […] Following washes, the pellet was dissolved in 20 mM Tris/HCl containing 150 mM NaCl, 1 mM EDTA, and 1% octyl glucoside on ice for 1 h. Particulate matter was removed by centrifugation at 100000×g for 1 h at 4° C. […] The mixture was incubated at 37° C. for 4 h before measuring the change in absorbance on a plate reader (BMG Labtech., Germany) at 600 nm. Data were analyzed using GraphPad Prism. IC50 for each compound was determined based on the percent inhibition of dihydro-orotate […].

T1 sequence (Q02127 whole entry): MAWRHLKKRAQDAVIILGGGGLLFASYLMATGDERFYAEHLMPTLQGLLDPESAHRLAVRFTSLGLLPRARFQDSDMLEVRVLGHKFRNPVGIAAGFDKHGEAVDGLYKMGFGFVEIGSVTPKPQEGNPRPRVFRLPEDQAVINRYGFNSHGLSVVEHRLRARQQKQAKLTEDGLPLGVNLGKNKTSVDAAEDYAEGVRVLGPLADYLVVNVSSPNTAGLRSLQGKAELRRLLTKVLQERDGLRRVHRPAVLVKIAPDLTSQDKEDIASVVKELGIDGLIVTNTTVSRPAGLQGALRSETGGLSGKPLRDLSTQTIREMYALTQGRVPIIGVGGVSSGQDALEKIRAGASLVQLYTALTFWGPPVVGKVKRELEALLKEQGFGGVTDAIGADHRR

| SMILES | inhibition at 10 µM (IL-17) [%] | inhibition at 1 µM (h-DHODH; 1 uM) [%] | melting point [°C] | h-DHODH % inhibition 1 uM (h-DHODH; 1 uM) [%] | pIC50 (h-DHODH) | inhibition at 0.3 µM (h-DHODH) [%] |
| --- | --- | --- | --- | --- | --- | --- |
| COc1cccc(-c2cc(F)c(NC(=O)c3ccccc3S(=O)(=O)O)c(F)c2)c1 [Example 2, 2-(3,5-Difluoro-3′-methoxybiphenyl-4-ylcarbamoyl)benzenesulfonic acid] | 29.2 | 12.2 | 97 to 102 |  |  |  |
| O=C(O)c1ccccc1C(=O)Nc1c(F)cc(-c2cccc(OC(F)(F)F)c2)cc1F [Example 12, 2-[3,5-Difluoro-3′-(trifluoromethoxy)biphenyl-4-ylcarbamoyl]benzoic acid] | 2.96 |  | 148.2 to 151.4 | 64.47 | 6.69 |  |
| O=C(O)c1ccccc1C(=O)Nc1c(F)cc(-c2cccc(OCc3ccccc3)c2)cc1F [Example 13, 2-[3′-(Benzyloxy)-3,5-difluorobiphenyl-4-ylcarbamoyl]benzoic acid] | 3.43 | 76.4 | 140.3 to 143.4 |  | 6.82 |  |
| CCOc1cccc(-c2cc(F)c(NC(=O)c3ccccc3C(=O)O)c(Cl)c2)c1 [Example 15, 2-(3-Chloro-3′-ethoxy-5-fluorobiphenyl-4-ylcarbamoyl)benzoic acid] | 57.5 | 75.5 | 135 to 140 |  | 6.89 |  |
| CCc1cccc(-c2ccc(NC(=O)c3ccccc3C(=O)O)cc2)c1 [Example 90, 2-(3′-ethylbiphenyl-4-ylcarbamoyl)benzoic acid] | 22.4 | 29.4 | 178 to 182 |  |  |  |
| O=C(O)c1ccccc1C(=O)Nc1ccc(-c2ccccc2F)cc1OC(F)(F)F [Example 23, 2-[2′-Fluoro-3-(trifluoromethoxy)biphenyl-4-ylcarbamoyl]benzoic acid] | 15 | 47.2 | 142.2 to 148.1 |  |  |  |
| O=C(O)c1ccccc1C(=O)Nc1c(F)cc(-c2cccc(OC(F)(F)F)c2)cc1Cl [Example 39, 2-[3-Chloro-5-fluoro-3′-(trifluoromethoxy)biphenyl-4-ylcarbamoyl]benzoic acid] | 5.87 | 74.4 | 153 to 156.5 |  | 6.75 |  |
| COc1cccc(-c2ccc(NC(=O)c3ccccc3C(=O)O)cn2)c1 [Example 3, 2-(6-(3-Methoxyphenyl)pyridin-3-ylcarbamoyl)benzoic acid] | 17.1 | 14.3 | 194 to 199 |  |  |  |
| CCSc1cccc(-c2cc(F)c(NC(=O)c3ccccc3C(=O)O)c(F)c2)c1 [Example 71, 2-[3′-(ethylthio)-3,5-difluorobiphenyl-4-ylcarbamoyl]benzoic acid] | 27.8 | 84.8 | 137.8 to 142.1 |  | 7.27 |  |
| O=C(O)c1ccccc1C(=O)Nc1c(Cl)cc(-c2ccccc2F)cc1Cl [Example 24, 2-(3,5-Dichloro-2′-fluorobiphenyl-4-ylcarbamoyl)benzoic acid] | 8.46 | 40.2 | 185.4 to 193.6 |  |  |  |
| O=C(O)c1ccccc1C(=O)Nc1c(F)cc(-c2ccccc2F)cc1Cl [Example 20, 2-(3-Chloro-2′,5-difluorobiphenyl-4-ylcarbamoyl)benzoic acid] | 24.3 | 55.4 | 163 to 167 |  |  |  |
| CCOc1cccc(-c2cc(Cl)c(NC(=O)c3ccccc3C(=O)O)c(Cl)c2)c1 [Example 21, 2-(3,5-Dichloro-3′-ethoxybiphenyl-4-ylcarbamoyl)benzoic acid] | 17.8 | 56.4 | 135.9 to 138.2 |  |  |  |
| CCOc1cccc(-c2cc(F)c(NC(=O)c3ccncc3C(=O)O)c(F)c2)c1 [Example 77, 4-(3′-ethoxy-3,5-difluorobiphenyl-4-ylcarbamoyl)nicotinic acid] | 9.25 |  | 219 to 221 |  |  | 50.2 |
| CCOc1cccc(-c2cc(F)c(NC(=O)c3cc(Cl)c(Cl)cc3C(=O)O)c(F)c2)c1 [Example 17, 4,5-Dichloro-2-(3′-ethoxy-3,5-difluorobiphenyl-4-ylcarbamoyl)benzoic acid] | 11.1 | 50.3 | 190.1 to 192.4 |  |  |  |
| O=C(O)c1ccccc1C(=O)Nc1c(F)cc(-c2cccc(OC3CCCC3)c2)cc1F [Example 41, 2-[3′-(Cyclopentyloxy)-3,5-difluorobiphenyl-4-ylcarbamoyl]benzoic acid] | 7.16 | 72.2 | 153 to 156.5 |  | 7.08 |  |
| COc1cccc(-c2cc(F)c(NC(=O)c3nccnc3C(=O)O)c(F)c2)c1 [Example 6, 3-(3,5-Difluoro-3′-methoxybiphenyl-4-ylcarbamoyl)pyrazine-2-carboxylic acid] | 9.52 | 2.26 | 180.1 to 183.4 |  |  |  |
| CCOc1cccc(-c2cc(F)c(NC(=O)c3ncccc3C(=O)O)c(F)c2)c1 [Example 76, 2-(3′-ethoxy-3,5-difluorobiphenyl-4-ylcarbamoyl)nicotinic acid] | 7.88 |  | 207 to 210 |  |  | 44 |
| O=C(O)c1ccccc1C(=O)Nc1ccc(-c2cccc(OC(F)(F)F)c2)cc1 [Example 88, 2-[3′-(trifluoromethoxy)biphenyl-4-ylcarbamoyl]benzoic acid] | 19.1 |  | 154.4 to 158.5 |  |  | 62.2 |
| O=C(O)c1cc(Cl)c(Cl)cc1C(=O)Nc1c(F)cc(-c2ccccc2Cl)cc1Cl [Example 27, 4,5-Dichloro-2-(2′,3-dichloro-5-fluorobiphenyl-4-ylcarbamoyl)benzoic acid] | 12.4 | 82.9 | 202.3 to 206.5 |  | 6.83 |  |
| CCOc1cccc(-c2cc(F)c(NC(=O)c3cc(Cl)c(Cl)cc3C(=O)O)c(Cl)c2)c1 [Example 14, 4,5-Dichloro-2-(3-chloro-3′-ethoxy-5-fluorobiphenyl-4-ylcarbamoyl)benzoic acid] | 13.5 | 52.2 | 260 to 265 |  |  |  |
| O=C(O)c1nccnc1C(=O)Nc1c(F)cc(-c2cccc(OCc3ccccc3)c2)cc1F [Example 9, 3-[3′-(Benzyloxy)-3,5-difluorobiphenyl-4-ylcarbamoyl]pyrazine-2-carboxylic acid] | 26.9 | 10.3 | 142 to 144.5 |  |  |  |
| COc1cccc(-c2cc(Cl)c(NC(=O)c3ccccc3C(=O)O)c(Cl)c2)c1 [Example 18, 2-(3,5-Dichloro-3′-methoxybiphenyl-4-ylcarbamoyl)benzoic acid] | 12.1 | 62.2 | 163 to 168 |  | 6.53 |  |
| CCOc1cccc(-c2cc(F)c(NC(=O)c3cccc(C)c3C(=O)O)c(F)c2)c1 [Example 74, 2-(3′-ethoxy-3,5-difluorobiphenyl-4-ylcarbamoyl)-6(5)-methylbenzoic acid] | 13.8 |  | 138 to 140 |  |  | 7.14 |
| CCSc1cccc(-c2ccc(NC(=O)c3ccccc3C(=O)O)cc2F)c1 [Example 82, 2-[3′-(ethylthio)-2-fluorobiphenyl-4-ylcarbamoyl]benzoic acid] | 17.6 |  | 74 to 76 |  |  | 57.9 |
| CCSc1cccc(-c2c(F)c(F)c(NC(=O)c3ccccc3C(=O)O)c(F)c2F)c1 [Example 78, 2-[3′-(ethylthio)-2,3,5,6-tetrafluorobiphenyl-4-ylcarbamoyl]benzoic acid] | 11.1 |  | 158 to 160 |  |  | 32.9 |
| O=C(O)c1ccccc1C(=O)Nc1c(F)cc(-c2cccc(OC3CC3)c2)cc1F [Example 73, 2-(3′-cyclopropoxy-3,5-difluorobiphenyl-4-ylcarbamoyl)benzoic acid] | 7.86 |  | 125 to 127 |  | 7.55 | 85 |
